Like-named read-outs stand apart in the source and are kept apart here.
Experiments:
[1] = test system: Pseudomonas aeruginosa; test: Skin and soft tissue infection (SSTI) two-layer agar model, zone of inhibition around KBr pellets; format: cell-based; details: KBr pellet with 2% (w/w) of substance on P. aeruginosa lawn, incubation at 37° C. for 18 h
Description: A skin and soft tissue infection (SSTI) model was used to study the antibacterial properties of three silver complexes. In this model, two layers of agar were employed to mimic a tissue infection with a nutrient rich bottom and the soft-top layer to allow for even dispersal of bacteria. The top soft agar acts like the skin and as bacteria grow they migrate towards the bottom nutrient layer mimicking an infected tissue. Frozen samples of Pseudomonas Aeruginosa were thawed and streaked on an agar plate. A single colony was selected and grown in Luria Broth (LB) for 18 h. The suspension was diluted with LB until an A600 (absorbance) of 0.5 was reached. The soft agar bacterial suspension was prepared by adding 120 mL of the above solution to 100 mL 0.8% (w/v) agar with 1% NaCl, which had been autoclaved and cooled to 45° C. before addition. The suspension was gently vortexed and 8 mL was spread evenly on the surface of 20 mL of a 1.5% (w/v) TSB agar plate (100×15 mm^2) and allowed to solidify. The plates were incubated for 2 h at 37° C. in order for the bacteria to reach log phase before bactericidal experiments were performed.
Blank KBr pellets (typically utilized for recording IR spectra) and KBr pellets with 2% (w/w) of three complexes (1), (2) and (5), each weighing between 34 and 46 mg, were evenly mulled and pressed with a two-ton load. Three blanks, containing PTA, or 4-Cl-pzH, or PPh3, were also prepared in the same manner. Pellets were carefully placed on the plates (see Example 8) after 2 h of incubation at 37° C.
A previously developed soft tissue infection (SSTI) model has been utilized for the present antibacterial studies. […] The gradient causes the bacteria to slowly travel from the slender top layer to the nutrient-rich bottom layer, much alike what would occur in a typical skin infection.

[2] = Solubility (qualitative); format: physicochemical
Description: All complexes provided herein were neutral and soluble in variety of organic solvents.
(§1) Both complex (5) and complex (29) were comparatively tested against P. aeruginosa.

[3] = test system: P. aeruginosa; test: Bacterial eradication assessed using the optical density method; format: cell-based, Pseudomonas aeruginosa
Description: FIGS. 51A-51B show the results of bacterial eradication by compounds of complex (5) and complex (29) assessed using the optical density method.
as §1

Compound	zone of bacterial clearing (zone of inhibition) [1]	other results
Clc1cn[nH]c1 [4-Cl-pzH, 4-Cl-pyrazole]	much smaller but still visible zones of bacterial growth inhibition	
O=[N+]([O-])[O-].[Ag+] [AgNO3, silver nitrate]	Visible circular zones of bacterial clearing	
c1ccc(P(c2ccccc2)c2ccccc2)cc1 [PPh3, triphenylphosphine]	no zone of inhibition	
C1N2CN3CN1CP(C2)C3 [PTA, 1,3,5-triazaphosphaadamantane]	much smaller but still visible zones of bacterial growth inhibition	
disilver(I)-bis(μ-3-methyl-pyrazolido)bis(PTA) [complex (29)]		solubility in water and several bacterial growth media [2]: readily soluble; eradication of the bacterial culture ([3]; P. aeruginosa, lowest concentration tested, 31.25 μg/mL): ~90%
disilver(I)-bis(μ-4-Cl-pyrazolido)(PPh3)3 [complex (2)]	minimal bacterial clearance	
disilver(I)-bis(μ-4-Cl-pyrazolido)tetrakis(PPh3) [complex (1)]	minimal bacterial clearance	
disilver(I)-bis(μ-4-Cl-pyrazolido)tetrakis(PTA) [complex (5)]	Visible circular zones of bacterial clearing	solubility in aqueous media ([2]; aqueous media): highly soluble; solubility in water and several bacterial growth media ([2]; water and several bacterial growth media): readily soluble; IC50, eradication of the bacterial culture ([3]; P. aeruginosa culture, optical density, increasing concentrations): > 2000 mg/L

From patent US12251401B2, “Synthesis and antimicrobial uses of dinuclear silver(I) pyrazolates” (The Florida International University Board of Trustees, priority 2018, dated 2025)
